In patent US20230331685A1, “HERBICIDAL COMPOUNDS AND METHODS OF USE THEREOF” (AG Plenus Ltd, priority 2020, published 2023):

Experiments:
Assay type in all cases: in vivo
Arabidopsis thaliana [1] = experiment: HTPS post-emergence application on miniature dicot model plant; settings: for Emax: Arabidopsis thaliana, post-emergence, green area (RGB), read-out: Max Inhibition (%); for ED50 (g/ha): dose-response of normalized green area
Description: (§1) The plates were placed in a controlled greenhouse in a random order inside a bath which allows flooding irrigation with tap water supplemented with a fertilizer. Applied compounds were dissolved into a final solution of 50% acetone, 49.9% DDW, 0.1% tween-20. A 96 well plate was used as a stock plate for preparing application solutions for 8 repeats. Each row contained different concentrations per chemical. Maximal concentration for application was 1.5 Kg/Ha and dilution factor is 2.5. Chemical application was performed one day after thinning out in a chemical hood. […] applied on first two true leaves in each well using 12 channel pipettes. Data collection: RGB (red, green, blue) data for green area per well was documented using camera. Data is collected at a few time points during the experiment: one day after thinning and before chemical application, two-, six- or nine-days post application. During the last two documentations, visual phenotyping was performed. Data analysis: Given RGB results and visual phenotype scores, a student t-test conducted to compare between treatment and control performance for continuous data (RGB) and Fisher exact test to analyze the non-continuous data (phenotypic scores). Dose-Response curves are generated for each treatment to infer ED50 and max. inhibition parameters, using treatment's log concentration range as the […] variable and normalized green area. Plate imaging performed at 11 and 18 DAA. RGB data for green area per well was documented and used to extract % inhibition. Dose-Response curves were built for each treatment to infer EC50, EC75 and EC90 parameters, using treatment's log concentration range as the independent variable and normalized green area as the dependent variable. Treatments were compared to controls performance given RGB results and using student's t-test (p-val≤0.05). Compounds 104-154 were applied in either or both pre- and post-emergence mode to either or both monocot and dicot model plants, following the methods described above. The compounds were applied as a gradient of concentrations as listed above, from which the ED50 was calculated.

Poa annua [2] = experiment: LTP pre-emergence greenhouse test; settings: Dosage 2000 g/ha
Description: (§2) A basic panel of 8 weed species (Table 3) were sowed in 4×4×7 cm plastic pots containing inert sand (Sweet sand), intensively washed using osmosis water. Each specie was sowed in a separate pot. In each pot 10-15 seeds were sowed according to the specie viability. Sowing was performed one day before application. The plants were grown for 21 days in a controlled greenhouse (26±2° C. day 20±2° C. night). Hood irrigation (tap water+Shefer 5:3:8 8 mM) was given at a 50% water content by weight. Compounds were soluble in water (DDW), and commercial herbicide control was soluble in formulation B (Table 4). Application was conducted with an industrial sprayer (TeeJet 6502E nozzle) at a rate of 2 kg/ha and spray volume of […]. Pre-emergence advanced dose response experiment application was conducted at six rates between 1-0.0312 kg/ha and spray volume of […]. Percentage of emergence was evaluated at 15 DAA. Visual phenotyping was recorded using a scale of 0-6 (0: no visible effect, 6: maximum effect) at 18 DAA. All experiments included an untreated control, a solvent control and a positive control (commercial herbicide A.I.). […] Statistical analysis for plant emergence determined by % emergence ≥50 and T test (pval≤0.05), as well as Wilcox test (pval≤0.05).

Setaria viridis [3] = experiment: LTP pre-emergence greenhouse test; settings: Dosage 2000 g/ha
Description: as §2

Matricaria chamomilla [4] = experiment: LTP pre-emergence greenhouse test; settings: Dosage 2000 g/ha
Description: as §2

Abutilon theophrasti [5] = experiment: LTP pre-emergence greenhouse test; settings: Dosage 2000 g/ha
Description: as §2

Alopecurus myosuroides [6] = experiment: LTP pre-emergence greenhouse test; settings: Dosage 2000 g/ha
Description: as §2

Lolium perenne [7] = experiment: LTP pre-emergence greenhouse test; settings: Dosage 2000 g/ha
Description: as §2

Ambrosia artemisiifolia [8] = experiment: LTP pre-emergence greenhouse test; settings: Dosage 2000 g/ha
Description: as §2

Amaranthus palmeri [9] = experiment: LTP pre-emergence greenhouse test; settings: Dosage 2000 g/ha
Description: as §2

[10] = tested on: monocot and eudicot weeds species; experiment: In-planta LTP weed panel, overall assessment; settings: for growth inhibition (in words): dicot species, either pre- or post-emergence applications
Alopecurus myosuroides [11] = experiment: LTP post-emergence greenhouse test; settings: Dosage 2000 g/ha
Setaria viridis [12] = experiment: LTP post-emergence greenhouse test; settings: Dosage 2000 g/ha
Matricaria chamomilla [13] = experiment: LTP post-emergence greenhouse test; settings: Dosage 2000 g/ha
Ambrosia artemisiifolia [14] = experiment: LTP post-emergence greenhouse test; settings: Dosage 2000 g/ha
Amaranthus palmeri [15] = experiment: LTP post-emergence greenhouse test; settings: Dosage 2000 g/ha
Poa annua [16] = experiment: LTP post-emergence greenhouse test; settings: Dosage 2000 g/ha
Lolium perenne [17] = experiment: LTP post-emergence greenhouse test; settings: Dosage 2000 g/ha
Abutilon theophrasti [18] = experiment: LTP post-emergence greenhouse test; settings: Dosage 2000 g/ha
Arabidopsis thaliana [19] = experiment: HTPS pre-emergence application on dicot model plant; settings: for ED50 (g/ha): dose-response of normalized green area; for Max Inhibition (%): green area (RGB)
Description: as §1, with “area. […]” for “area.”

[20] = tested on: monocot and dicot model plants; experiment: In-planta HTPS, overall assessment; settings: on monocots
Description: The plates were placed in a controlled greenhouse in a random order inside a bath which allows flooding irrigation with tap water supplemented with a fertilizer. Applied compounds were dissolved into a final solution of 50% acetone, 49.9% DDW, 0.1% tween-20. A 96 well plate was used as a stock plate for preparing application solutions for 8 repeats. Each row contained different concentrations per chemical. Maximal concentration for application was 1.5 Kg/Ha and dilution factor is 2.5. Chemical application was performed one day after thinning out in a chemical hood. […] applied on first two true leaves in each well using 12 channel pipettes. Data collection: RGB (red, green, blue) data for green area per well was documented using camera. Data is collected at a few time points during the experiment: one day after thinning and before chemical application, two-, six- or nine-days post application. During the last two documentations, visual phenotyping was performed. Data analysis: Given RGB results and visual phenotype scores, a student t-test conducted to compare between treatment and control performance for continuous data (RGB) and Fisher exact test to analyze the non-continuous data (phenotypic scores). […] The compounds were applied as a gradient of concentrations as listed above, from which the ED50 was calculated.

CC(O)C(N)CCCCC(=O)NS(=O)(=O)CC1CCCC1 (centres unmarked) [Compound 101]
Emax (Arabidopsis thaliana [1]): 100% | ED50 (g/ha) (Arabidopsis thaliana [1]): 29 g/ha

O=C(O)CCCCC1CCNC1 (centres unmarked) [Compound 123]
Emax (Arabidopsis thaliana [1]): 100% | ED50 (g/ha) (Arabidopsis thaliana [1]): 140 g/ha

O=C(O)CCCCC1CCCN1 (centres unmarked) [Compound 148]
Herbicidal activity (In-planta), LTP-Pre emergence, Poa annua (Poa annua [2]): 60-80 | Herbicidal activity (In-planta), LTP-Pre emergence, Setaria viridis (Setaria viridis [3]): 40 | Herbicidal activity (In-planta), LTP-Pre emergence, Matricaria chamomilla (Matricaria chamomilla [4]): 60-80 | Herbicidal activity (In-planta), LTP-Pre emergence, Abutilon theophrasti (Abutilon theophrasti [5]): 40-60 | Herbicidal activity (In-planta), LTP-Pre emergence, Alopecurus myosuroides (Alopecurus myosuroides [6]): 0 | Herbicidal activity (In-planta), LTP-Pre emergence, Lolium perenne (Lolium perenne [7]): 0 | Herbicidal activity (In-planta), LTP-Pre emergence, Ambrosia artemisiifolia (Ambrosia artemisiifolia [8]): 60 | Herbicidal activity (In-planta), LTP-Pre emergence, Amaranthus palmeri (Amaranthus palmeri [9]): 60-80 | Emax (Arabidopsis thaliana [1]): 100% | ED50 (g/ha) (Arabidopsis thaliana [1]): 30 g/ha | activity (in words) ([10]; dicots and monocots, applied pre-emergence): good to moderate activity

C[C@@H](O)[C@H](N)CCCCC(=O)O [Compound 115]
Emax (Arabidopsis thaliana [1]): 100% | ED50 (g/ha) (Arabidopsis thaliana [1]): 13 g/ha

C[C@H]1OC(=O)N[C@H]1CCCCC(=O)O [Compound 105, 5-((4S,5R)-5-methyl-2-oxooxazolidin-4-yl)pentanoic acid]
Emax (Arabidopsis thaliana [1]): 94% | ED50 (g/ha) (Arabidopsis thaliana [1]): 430 g/ha

COC(=O)CCCSC1CCCC1N (centres unmarked) [Compound 146]
Herbicidal activity (In-planta), LTP-Pre emergence, Poa annua (Poa annua [2]): 0 | Herbicidal activity (In-planta), LTP-Pre emergence, Setaria viridis (Setaria viridis [3]): 60 | Herbicidal activity (In-planta), LTP-Pre emergence, Matricaria chamomilla (Matricaria chamomilla [4]): 0 | Herbicidal activity (In-planta), LTP-Pre emergence, Abutilon theophrasti (Abutilon theophrasti [5]): 0 | Herbicidal activity (In-planta), LTP-Pre emergence, Alopecurus myosuroides (Alopecurus myosuroides [6]): 0 | Herbicidal activity (In-planta), LTP-Pre emergence, Lolium perenne (Lolium perenne [7]): 40 | Herbicidal activity (In-planta), LTP-Pre emergence, Ambrosia artemisiifolia (Ambrosia artemisiifolia [8]): 0 | Herbicidal activity (In-planta), LTP-Pre emergence, Amaranthus palmeri (Amaranthus palmeri [9]): 60-80 | Emax (Arabidopsis thaliana [1]): 100% | ED50 (g/ha) (Arabidopsis thaliana [1]): 80 g/ha | growth inhibition (in words) [10]: moderate growth inhibition

CC(N)CCCCC(=O)O (centres unmarked) [Compound 107]
Emax (Arabidopsis thaliana [1]): 100% | ED50 (g/ha) (Arabidopsis thaliana [1]): 200 g/ha

C[C@H](O)[C@@H](N)CCCCC(=O)O [Compound 114]
Emax (Arabidopsis thaliana [1]): 100% | ED50 (g/ha) (Arabidopsis thaliana [1]): 40 g/ha

CCC(O)C(N)CCCCC(=O)O (centres unmarked) [Compound 113]
Emax (Arabidopsis thaliana [1]): 100% | ED50 (g/ha) (Arabidopsis thaliana [1]): 26 g/ha

CC(C)(C)C(N)c1cccc(C(=O)O)c1 (centres unmarked) [Compound 109]
Herbicidal activity (In-planta), LTP-Post emergence, Alopecurus myosuroides (Alopecurus myosuroides [11]): 0 | Herbicidal activity (In-planta), LTP-Post emergence, Setaria viridis (Setaria viridis [12]): 0 | Herbicidal activity (In-planta), LTP-Pre emergence, Poa annua (Poa annua [2]): 0 | Herbicidal activity (In-planta), LTP-Pre emergence, Setaria viridis (Setaria viridis [3]): 0 | Herbicidal activity (In-planta), LTP-Pre emergence, Matricaria chamomilla (Matricaria chamomilla [4]): 0 | Herbicidal activity (In-planta), LTP-Pre emergence, Abutilon theophrasti (Abutilon theophrasti [5]): 0 | Herbicidal activity (In-planta), LTP-Pre emergence, Alopecurus myosuroides (Alopecurus myosuroides [6]): 0 | Herbicidal activity (In-planta), LTP-Pre emergence, Lolium perenne (Lolium perenne [7]): 0 | Herbicidal activity (In-planta), LTP-Pre emergence, Ambrosia artemisiifolia (Ambrosia artemisiifolia [8]): 0 | Herbicidal activity (In-planta), LTP-Pre emergence, Amaranthus palmeri (Amaranthus palmeri [9]): 40 | Herbicidal activity (In-planta), LTP-Post emergence, Matricaria chamomilla (Matricaria chamomilla [13]): 0 | Herbicidal activity (In-planta), LTP-Post emergence, Ambrosia artemisiifolia (Ambrosia artemisiifolia [14]): 40 | Herbicidal activity (In-planta), LTP-Post emergence, Amaranthus palmeri (Amaranthus palmeri [15]): 40 | Herbicidal activity (In-planta), LTP-Post emergence, Poa annua (Poa annua [16]): 0 | Herbicidal activity (In-planta), LTP-Post emergence, Lolium perenne (Lolium perenne [17]): 0 | Herbicidal activity (In-planta), LTP-Post emergence, Abutilon theophrasti (Abutilon theophrasti [18]): 0 | Emax (Arabidopsis thaliana [1]): 100% | ED50 (g/ha) (Arabidopsis thaliana [1]): 200 g/ha | growth inhibition (in words) [10]: moderate growth inhibition | ED50 (g/ha) (Arabidopsis thaliana [19]): 24 g/ha

CCC(C)C(N)c1cccc(C(=O)O)c1 (centres unmarked) [Compound 108]
ED50 (g/ha) (Arabidopsis thaliana [19]): 175 g/ha | Max Inhibition (%) (Arabidopsis thaliana [19]): 100%

NC1CCCCC1CCCC(=O)O (centres unmarked) [Compound 152]
Emax (Arabidopsis thaliana [1]): 100% | ED50 (g/ha) (Arabidopsis thaliana [1]): 4 g/ha

NC1CCC(CCCC(=O)O)C1 (centres unmarked) [Compound 143]
Emax (Arabidopsis thaliana [1]): 100% | ED50 (g/ha) (Arabidopsis thaliana [1]): 61 g/ha

C[C@@H]1OC(=O)N[C@@H]1CCCCC(=O)O [Compound 106, 5-((4R,5S)-5-methyl-2-oxooxazolidin-4-yl)pentanoic acid]
Emax (Arabidopsis thaliana [1]): 82% | ED50 (g/ha) (Arabidopsis thaliana [1]): >1000 g/ha

COC(=O)CN(C)C(=O)CCCCC(N)C(C)O (centres unmarked) [Compound 102]
Emax (Arabidopsis thaliana [1]): 90% | ED50 (g/ha) (Arabidopsis thaliana [1]): 2 g/ha

CCC(N)CCCCC(=O)O (centres unmarked) [Compound 149]
activity (in words) [20]: very good activity | Emax (Arabidopsis thaliana [1]): 100% | ED50 (g/ha) (Arabidopsis thaliana [1]): 90 g/ha

O=C(O)CCCC1CCCNC1 (centres unmarked) [Compound 154]
Emax (Arabidopsis thaliana [1]): 100% | ED50 (g/ha) (Arabidopsis thaliana [1]): 8 g/ha

COC(=O)CCSC1CCCC1N (centres unmarked) [Compound 147]
Emax (Arabidopsis thaliana [1]): 50% | ED50 (g/ha) (Arabidopsis thaliana [1]): 807 g/ha | Max Inhibition (%) (Arabidopsis thaliana [19]): 100%
